# Experiments:
# [1] = tested on: Pseudomonas aeruginosa; type: in vivo, dog
# [2] = type: in vivo, dog; settings: 7 days, AST 24 hours after last dose
# [3] = type: in vivo, dog
# [4] = tested on: tubulin; type: cell-based, dog
# [5] = type: in vivo, dog; settings: 15 mg/kg PO q12 h for 2 weeks
# [6] = type: in vivo, dog; settings: mean ± SD; 18 of 20 dogs; single 1 mg/kg oral aspirin; LC‐MS
# [7] = tested on: platelet function; type: in vivo, dog
# [8] = tested on: platelet function; type: in vivo, dog; settings: Day 7
# [9] = tested on: platelet function; type: in vivo, dog; settings: day 7; HM5 analyzer
# [10] = tested on: platelet aggregation; type: in vivo, dog; settings: 1 mg/kg orally; 20, 40 and 180 minutes
# [11] = tested on: platelet function; type: in vivo, dog; settings: day 7
# [12] = tested on: platelet function; type: in vivo, dog; settings: day 7; remark: listed apart in the source
# [13] = not given; remark: listed apart in the source
# [14] = tested on: Anaplasma phagocytophilum; type: in vivo, dog
# [15] = target: Angiotensin converting enzyme (ACE) (Canis lupus familiaris, UniProt A0A8I3S3I6); type: in vivo, dog; settings: enalapril 0.5 mg/kg orally twice a day, 14–21 days
# Chain of Angiotensin converting enzyme (ACE) (A0A8I3S3I6 31-1241 limits assumed): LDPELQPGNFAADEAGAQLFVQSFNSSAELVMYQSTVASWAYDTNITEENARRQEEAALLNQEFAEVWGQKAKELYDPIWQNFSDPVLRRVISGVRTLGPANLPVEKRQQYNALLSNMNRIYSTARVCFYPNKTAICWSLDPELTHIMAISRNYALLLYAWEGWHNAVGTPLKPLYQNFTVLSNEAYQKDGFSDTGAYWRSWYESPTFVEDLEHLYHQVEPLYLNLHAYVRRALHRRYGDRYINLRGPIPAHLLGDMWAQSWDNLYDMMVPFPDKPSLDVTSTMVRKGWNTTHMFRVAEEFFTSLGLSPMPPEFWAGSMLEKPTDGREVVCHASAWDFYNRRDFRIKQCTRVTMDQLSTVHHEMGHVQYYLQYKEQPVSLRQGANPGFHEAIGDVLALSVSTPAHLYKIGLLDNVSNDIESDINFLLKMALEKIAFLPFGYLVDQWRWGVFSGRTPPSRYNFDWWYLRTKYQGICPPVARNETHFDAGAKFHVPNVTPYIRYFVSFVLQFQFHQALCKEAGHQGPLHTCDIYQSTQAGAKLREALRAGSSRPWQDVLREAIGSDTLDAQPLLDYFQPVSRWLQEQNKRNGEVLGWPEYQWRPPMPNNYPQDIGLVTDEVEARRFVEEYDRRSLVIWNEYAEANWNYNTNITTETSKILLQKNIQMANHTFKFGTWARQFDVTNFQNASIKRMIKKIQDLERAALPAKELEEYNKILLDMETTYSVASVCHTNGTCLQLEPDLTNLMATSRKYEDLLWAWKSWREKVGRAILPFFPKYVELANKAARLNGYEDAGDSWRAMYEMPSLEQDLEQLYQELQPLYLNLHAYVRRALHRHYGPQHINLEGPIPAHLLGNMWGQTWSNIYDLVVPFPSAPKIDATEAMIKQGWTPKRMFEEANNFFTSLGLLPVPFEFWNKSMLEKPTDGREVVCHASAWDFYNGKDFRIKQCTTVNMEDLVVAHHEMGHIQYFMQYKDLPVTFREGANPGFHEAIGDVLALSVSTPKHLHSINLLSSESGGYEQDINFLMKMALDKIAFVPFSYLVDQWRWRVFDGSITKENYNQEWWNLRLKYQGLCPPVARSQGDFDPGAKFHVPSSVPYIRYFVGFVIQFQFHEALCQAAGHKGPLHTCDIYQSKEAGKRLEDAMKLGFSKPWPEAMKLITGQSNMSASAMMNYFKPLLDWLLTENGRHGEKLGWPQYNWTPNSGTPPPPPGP
# [16] = type: in vivo, dog; remark: listed apart in the source
# [17] = tested on: hypothalamic‐pituitary‐thyroid axis; type: in vivo, dog; settings: mean dose 0.024 mg/kg every 24 hours for 8 or 16 weeks
# [18] = type: in vivo, dog; remark: listed apart in the source
# [19] = type: in vivo, cat
# [20] = tested on: Ixodes scapularis; type: in vivo, dog
# [21] = tested on: Borrelia burgdorferi; type: in vivo, dog; settings: single oral dose; negative antibody, PCR, and culture
# [22] = tested on: Anaplasma phagocytophilum; type: in vivo, dog; settings: all sarolaner‐treated dogs
# [23] = type: in vivo, dog; remark: listed apart in the source
# [24] = not given; remark: listed apart in the source
# [25] = type: in vivo, dog; remark: listed apart in the source
# [26] = in vivo; cited from earlier work
# [27] = type: in vivo, dog; remark: listed apart in the source
# [28] = 8.5 mg/kg orally every 12 hours
compound,measurement,setting,value
CC[C@H]1OC(=O)[C@H](C)[C@@H](O[C@H]2C[C@@](C)(OC)[C@@H](O)[C@H](C)O2)[C@H](C)[C@@H](O[C@@H]2O[C@H](C)C[C@H](N(C)C)[C@H]2O)[C@](C)(O)C[C@@H](C)CN(C)[C@H](C)[C@@H](O)[C@]1(C)O [Azithromycin],"concentration of BHL, HHL and OdDHL in ear canal samples","[1]; 1 mL of 50 µg/mL topical SID for 56 days, P ≥ 0.2",not affected
same,clinical signs and duration of the disease,[1]; P = 0.5,no effect
"CC(=O)OCC(=O)[C@@]1(O)CC[C@H]2[C@@H]3CCC4=CC(=O)CC[C@]4(C)[C@H]3C(=O)C[C@@]21C [CA, cortisone acetate]","mean (±SEM) post AST serum cortisol, 25 mg",[2],335 ± 13 nmol/L
same,"mean (±SEM) post AST serum cortisol, 37.5 mg",[2],326 ± 13 nmol/L
same,"mean (±SEM) post AST serum cortisol, 50 mg",[2],308 ± 13 nmol/L
same,"mean (±SEM) post AST serum cortisol, 12.5 mg","[2]; 14 dogs, placebo 365 ± 13",347 ± 13 nmol/L
"C[C@]12CCC(=O)C=C1CC[C@@H]1[C@@H]2[C@@H](O)C[C@@]2(C)[C@H]1CC[C@]2(O)C(=O)CO [Hydrocortisone, hydrocortisone]","serum adiponectin concentrations on days 1, 3, 7, 30, 60, and 90 versus day 0",[3]; [28],decreased
same,"serum leptin concentrations on days 1, 3, 7, 30, 60, and 90 versus day 0",[3]; [28],significantly increased
same,"abdominal visceral fat mass on days 30, 60, and 90 versus day 0","[3]; 8.5 mg/kg orally every 12 hours for 90 days, six dogs, CT",increased abdominal visceral fat mass
"COC(=O)Nc1nc2ccc(C(=O)c3ccccc3)cc2[nH]1 [MBZ, mebendazole]",tubulin depolymerization versus untreated control,[4],increased depolymerization of tubulin
"Cc1ncc([N+](=O)[O-])n1CCO [Metronidazole, metronidazole]","altered fecal metabolites, out of 469 measured",[5],98
same,fecal secondary bile acids,[5]; P < 0.001,reduction in secondary bile acids
"O=C(O)c1ccccc1O [SA, salicylic acid]",maximum plasma concentrations (Cmax),[6],21 ± 5 µM
"CC(=O)Oc1ccccc1C(=O)O [aspirin, acetylsalicylic acid]","mean decrease in maximum amplitude, Dose A","[7]; 0.5 mg/kg, q24 h PO, Day 7 versus Day 0",3.8%
same,"mean decrease in maximum amplitude, Dose B","[7]; 1 mg/kg, q24 h PO, Day 7",41.3%
same,"mean decrease in maximum amplitude, Dose C","[7]; 2 mg/kg, q24 h PO, Day 7",81.3%
same,"mean decrease in maximum amplitude, Dose D","[7]; 4 mg/kg, q24 h PO, Day 7",75.9%
same,"mean decrease in maximum amplitude, Dose E","[7]; 10 mg/kg, q12 h PO, Day 7",87.8%
same,"dogs with PFA‐100 closure time >300 seconds, Dose A","[8]; 0.5 mg/kg, q24 h",0%
same,"dogs with PFA‐100 closure time >300 seconds, Dose B","[8]; 1 mg/kg, q24 h",25%
same,"dogs with PFA‐100 closure time >300 seconds, Dose C","[8]; 2 mg/kg, q24 h",62.5%
same,"dogs with PFA‐100 closure time >300 seconds, Dose D","[8]; 4 mg/kg, q24 h",87.5%
same,"dogs with PFA‐100 closure time >300 seconds, Dose E","[8]; 10 mg/kg, q12 h",87.5%
same,"PW % aggregation with AA, post treatment mean",[9],7%
same,inhibition of platelet aggregation after single dose,[10],did not cause measureable inhibition of platelet aggregation
same,maximum plasma concentrations (Cmax),[6],0.23 ± 0.21 µM
COC(=O)[C@H](c1ccccc1Cl)N1CCc2sccc2C1 [clopidogrel],"MP AUC with AA, post treatment mean",[11],19 U
same,"MP AUC with ADP, post treatment mean",[11],13 U
same,"PFA closure time, COL‐ADP cartridge, post treatment mean",[12],185 s
same,"PFA closure time, P2Y cartridge, post treatment mean",[12],> 300 s
same,"PW % aggregation with AA, post treatment mean",[9],4%
same,"PW % aggregation with ADP, post treatment mean",[9],9%
O=P1(N(CCCl)CCCl)NCCCO1 (stereo not drawn) [cyclophosphamide],dogs with stable disease or partial/complete remission >100 days,10 mg cyclophosphamide daily/every other day,74%
same,dogs that developed haematuria,"10 mg cyclophosphamide daily/every other day, three dogs",8.6%
same,dogs still alive over one year later,13 of 35 dogs,37%
same,dogs with DFI >6 months,20 of 35 dogs,57%
same,"median survival time (MST), intermediate/high grade sarcomas",n = 18,362 days
COc1cccc2c1C(=O)c1c(O)c3c(c(O)c1C2=O)C[C@@](O)(C(=O)CO)C[C@@H]3O[C@H]1C[C@H](N)[C@H](O)[C@H](C)O1 [doxorubicin],MTD of doxorubicin in the combination,"[13]; IV every 21 days with toceranib 2.75 mg/kg PO every other day, 21 dogs",25 mg/m2
same,dose limiting toxicity (DLT),"[13]; dog, in vivo",neutropenia
C[C@H]1c2cccc(O)c2C(=O)C2=C(O)[C@]3(O)C(=O)C(C(N)=O)=C(O)[C@@H](N(C)C)[C@@H]3[C@@H](O)[C@@H]21 [doxycycline],AP antibodies on Week 48 in Group 1,[14]; doxycycline 5 mg/kg PO twice daily for 4 weeks from Week 20,The only dogs that became AP seronegative by Week 48 were administered doxycycline
CCOC(=O)[C@H](CCc1ccccc1)N[C@@H](C)C(=O)N1CCC[C@H]1C(=O)O [enalapril],"median post therapy ACE activity, dogs homozygous for DNA variant",[15]; baseline 18.05 U/L,< 5.0 U/L
same,"median post therapy ACE activity, wildtype dogs",[15]; baseline 27.4 U/L,< 5.0 U/L
Cc1oncc1C(=O)Nc1ccc(C(F)(F)F)cc1 [leflunomide],increased liver enzyme activities,[16]; 1 of 16,6.3%
same,thrombocytopenia,[16]; 2 of 31,6.5%
same,lethargy,[16]; 2 of 92,2.2%
same,suspect blood dyscrasia,[16]; 3 of 92,3.3%
same,diarrhea,"[16]; 3 of 92, mean dose 1.79 ± 0.8 mg/kg/day",3.3%
same,discontinued due to possible adverse events,[16]; 6 dogs,6.5%
same,dogs with apparent positive response,"[16]; 12 of 17 dogs (IMPA, IMTP, CH)",70.5%
N[C@@H](Cc1cc(I)c(Oc2cc(I)c(O)c(I)c2)c(I)c1)C(=O)O [levothyroxine],mean serum TSH during administration compared to baseline,[17],significantly lower
same,mean serum T4 and fT4 during administration compared to baseline,[17]; 28 dogs,significantly higher
CCOc1cc(N)c(Cl)cc1C(=O)NCC1CN(Cc2ccc(F)cc2)CCO1 (stereo not drawn) [mosapride],"median increase of plasma motilin after feeding, Group N",[18]; feeding only 65.0,-1.6 pg/mL
same,"median increase of plasma motilin after feeding, Group S",[18]; feeding only 173.3,37.0 pg/mL
COc1ccc2[nH]c([S+]([O-])Cc3ncc(C)c(OC)c3C)nc2c1 (stereo not drawn) [omeprazole],serum gastrin in comparison to placebo,"[19]; 0.83–1.6 mg/kg PO q12 h for 60 days, 6 cats, P < 0.002",significantly higher
same,intragastric pH after cessation,[19]; two cats with intragastric pH capsules,Evidence of gastric hyperacidity
C[C@]12C=CC(=O)C=C1CC[C@@H]1[C@@H]2[C@@H](O)C[C@@]2(C)[C@H]1CC[C@]2(O)C(=O)CO [prednisolone],clinical abnormalities,[14]; prednisolone 2 mg/kg PO daily for 2 weeks from Week 24,Clinical abnormalities were not detected
CS(=O)(=O)CC(=O)N1CC2(C1)OCc1cc(C3=NO[C@@](c4cc(Cl)c(F)c(Cl)c4)(C(F)(F)F)C3)ccc12 [sarolaner],"percent reduction in mean live tick counts, Day 29, treated 28 days prior",[20]; 2 mg/kg oral,90.9%
same,"percent reduction in mean live tick counts, Day 30, treated 21 days prior",[20]; 2 mg/kg oral,100%
same,"percent reduction in mean live tick counts, Day 30, treated 28 days prior",[20]; 2 mg/kg oral,97.1%
same,"percent reduction in mean live tick counts, Day 33, treated 21 days prior",[20]; 2 mg/kg oral,100%
same,"percent reduction in mean live tick counts, Day 33, treated 28 days prior",[20]; 2 mg/kg oral,100%
same,adverse reactions to treatment,"[20]; dog, in vivo",no adverse reactions
same,transmission of B. burgdorferi to dogs infested 21 or 28 days after treatment,[21],prevented transmission
same,A. phagocytophilum antibody in treated dogs,[22],negative antibody
Cc1[nH]c(/C=C2\C(=O)Nc3ccc(F)cc32)c(C)c1C(=O)NCCN1CCCC1 [toceranib phosphate],median time to development of proteinuria,[23]; dogs that developed proteinuria,47 days
same,median UPC in dogs that developed proteinuria,[23]; urine protein creatinine ratio,0.7
"C[C@]12CC[C@H]3[C@@H](CC[C@@]45O[C@@H]4C(O)=C(C#N)C[C@]35C)[C@@H]1CC[C@@H]2O [treatment A, trilostane]",dogs with complete hair regrowth,[24]; after three months of treatment (stated for treatment A),50%
same,dogs with partial regrowth,"[24]; dog, in vivo",37.5%
"COc1ccc2[nH]cc(CCNC(C)=O)c2c1 [treatment C, melatonin]",tolerability,[24]; one of the two dogs,had to be withdrawn due to emesis
Darbepoetin alfa,possible PRCA,[25]; 1/34 dogs,2.9%
same,dogs with potential adverse events,"[25]; dog, in vivo",19/34
same,longest dosing interval at which a response was sustained,"[25]; dog, in vivo",≤ 21 days
same,responders (HCT of 30% achieved),"[25]; median starting dose 0.5 mcg/kg, every 7 days in 31/34 dogs",Twenty‐nine of 34 dogs were responders
same,median time to response,[25]; range 6 ‐ 106,28 days
same,median survival following initiation of therapy,[25]; range 30 – 546,118 days
same,"cats that responded, of 25",[26],14 cats
cyanocobalamin [cbl],"median serum cbl after 28 days, PO","[27]; daily cyanocobalamin tablets ¼ to 1 mg by weight, n = 22, 245 at inclusion",970 ng/L
same,"mean increase in serum cbl at 28 days to baseline, PE","[27]; dog, in vivo",1465 ± 745 ng/L
same,"mean increase in serum cbl at 28 days to baseline, PO","[27]; dog, in vivo, po",888 ± 449 ng/L
same,"mean serum cbl after 3 months, PE",[27]; n = 13,803 ± 275 ng/L
same,"mean serum cbl after 28 days, PE","[27]; n = 19, 221 ± 43 at inclusion",1686 ± 757 ng/L
same,"median serum cbl after 3 months, PO",[27]; n = 20,1334 ng/L
same,"median increase in serum cbl after 3 months, PE",[27]; range 38–997,608 ng/L
same,"median increase in serum cbl after 3 months, PO",[27]; range 538–3663,970 ng/L

# Source: article PMC5260423 (Journal of Veterinary Internal Medicine, 2016)
